Laboratory results from paper PMC7937321 (Genes and Environment, 2021).
Where two headings read alike, the source gives them in different places.

Tests used:
[1] = system: L5178Y mouse lymphoma cells; set-up: key to MLA (TK gene locus), Without S9 / MLA (TK gene locus), With S9: Positive; Negative; details: cited from earlier work
mammalian cells = system: mammalian cells; set-up: method as in PMID 32152633; details: ref [10], [11]; cited from earlier work
[2] = system: 3-D reconstituted human skin cells; set-up: method as in PMID 32152633; details: ref [10], [11]; cited from earlier work
[3] = system: TA1538, TA100, TA98, TA97, TA1535; details: cited from earlier work; for Bacterial reverse mutation assay, With S9 / Bacterial reverse mutation assay, Without S9: ref [18]-[40], Table 2
[4] = system: human lymphoblastoid TK6 cells, thymidine kinase gene
TK6 cells [5] = details: human
in vitro = details: human
human lymphocytes = system: human lymphocytes; set-up: method as in PMID 22539226; details: in vitro; ref [6]; cited from earlier work
rats = details: ref [6]; cited from earlier work
mice = system: mice; set-up: method as in PMID 22539226; details: ref [6]; cited from earlier work
rodent [6] = details: cited from earlier work; for Carcinogenicity Studies: rodent, ref [20]-[41], Table 2
rodent [7] = details: cited from earlier work
[8] = system: human lymphoblastoid TK6 cells, thymidine kinase gene; experiment: TK gene mutation assay (TK6 assay, OECD TG490); details: for TK6 assay overall judgment: all treatments; for TK mutation assay, With S9 / TK mutation assay, Without S9: short-term 4 h; for TK mutation assay, With S9: with rat liver S9
TK6 cells [9] = experiment: Cytotoxicity in the TK6 assay (CE, RS, RSG, RTG)
livers of rats = details: ref [74]; cited from earlier work
[10] = system: human lymphoblastoid TK6 cells, thymidine kinase gene; set-up: method as in PMID 2184322; details: 96 h of exposure, absence of S9; ref [67]; cited from earlier work
[11] = chromosomal Aberration test, micronucleus test, transgenic rodent gene mutation assay, ref [48], [58]–[63]
[12] = Short-term treatment with metabolic activation
[13] = Short-term treatment without metabolic activation

C[N+](C)(C)c1ccc2ccc(O)c(N=Nc3ccc(N)c([N+](=O)[O-])c3)c2c1.[Cl-] [Basic Brown 17]
mutation assays using mouse lymphoma ([1]; two loci of TK and HPRT, ref [10], [11]): negative | in vitro micronucleus test using mammalian cells (mammalian cells): negative | comet assay with 3-D reconstituted human skin cells [2]: negative | Ames test ([3]; ref [10], [11]): positive

COS(C)(=O)=O [MMS, methyl methanesulfonate]
Mut. freq. T-MF (MF) ([4]; human, 4 h, 3 μg/mL): 23.9 ×10-6 | MF ([4]; human, 4 h, 5 μg/mL): 71.7 | Mut. freq. N-MF ([4]; human, 4 h, 5 μg/mL): 29.3 ×10-6 | Mut. freq. S-MF ([4]; human, 4 h, 5 μg/mL): 42.3 ×10-6 | Mut. freq. T-MF ([4]; human, 4 h, 5 μg/mL): 71.7 ×10-6 | %SG ([4]; human, 24 h, 1 μg/mL): 59.3% | Mut. freq. (×10-6) N-MF ([4]; human, 24 h, 1 μg/mL): 14.0 ×10-6 | Mut. freq. (×10-6) S-MF ([4]; human, 24 h, 1 μg/mL): 20.5 ×10-6 | Mut. freq. (×10-6) T-MF ([4]; human, 24 h, 1 μg/mL): 34.5 ×10-6 | MF ([4]; human, 24 h, 2 μg/mL): 86.4 | Mut. freq. (×10-6) N-MF ([4]; human, 24 h, 2 μg/mL): 25.3 ×10-6 | Mut. freq. (×10-6) S-MF ([4]; human, 24 h, 2 μg/mL): 39.7 ×10-6 | Mut. freq. (×10-6) T-MF ([4]; human, 24 h, 2 μg/mL): 65.0 ×10-6 | Mut. freq. N-MF ([4]; human, 24 h, 2 μg/mL): 51.4 ×10-6 | Mut. freq. S-MF ([4]; human, 24 h, 2 μg/mL): 34.9 ×10-6 | Mut. freq. T-MF ([4]; human, 24 h, 2 μg/mL): 86.4 ×10-6 | CE0 (%) (TK6 cells [5]; 4 h, 3 μg/mL): 48.8% | CE0 (%), cell viability on Day 0 (TK6 cells [5]; 4 h, 3 μg/mL): 38.3% | CE3 (%) (TK6 cells [5]; 4 h, 3 μg/mL): 56.3% | CE3 (%), cell viability on Day 3 (TK6 cells [5]; 4 h, 3 μg/mL): 54.7% | Daily cell growth Day 1×2×3 (TK6 cells [5]; 4 h, 3 μg/mL): 8.36 | Adjusted CE0 (TK6 cells [5]; 4 h, 5 μg/mL): 30.4% | CE0 (TK6 cells [5]; 4 h, 5 μg/mL): 32.6% | Daily cell growth Day 1×2×3 (TK6 cells [5]; 4 h, 5 μg/mL): 7.40 | RS (TK6 cells [5]; 4 h, 5 μg/mL): 35.0 | RS0 (TK6 cells [5]; 4 h, 5 μg/mL): 35.0% | RSG (TK6 cells [5]; 4 h, 5 μg/mL): 0.357 | Adjusted CE0(%) (TK6 cells [5]; 24 h, 1 μg/mL): 133.2% | CE0 (%) (TK6 cells [5]; 24 h, 1 μg/mL): 63.1% | CE3 (TK6 cells [5]; 24 h, 1 μg/mL): 0.866 | CE3 (%) (TK6 cells [5]; 24 h, 1 μg/mL): 86.6% | Daily cell growth Day 1×2×3 (TK6 cells [5]; 24 h, 1 μg/mL): 15.58 | RS0 (%) (TK6 cells [5]; 24 h, 1 μg/mL): 59.4% | RSG (TK6 cells [5]; 24 h, 1 μg/mL): 0.886 | Adjusted CE0 (TK6 cells [5]; 24 h, 2 μg/mL): 8.3% | Adjusted CE0(%) (TK6 cells [5]; 24 h, 2 μg/mL): 42.0% | CE0 (TK6 cells [5]; 24 h, 2 μg/mL): 14.6% | CE0 (%) (TK6 cells [5]; 24 h, 2 μg/mL): 21.6% | CE3 (%) (TK6 cells [5]; 24 h, 2 μg/mL): 81.6% | RS (TK6 cells [5]; 24 h, 2 μg/mL): 12.2 | RS0 (TK6 cells [5]; 24 h, 2 μg/mL): 12.2% | RS0 (%) (TK6 cells [5]; 24 h, 2 μg/mL): 18.7% | viability at 4 h, 3 μg/mL (in vitro; CE0 (%), cell viability on Day 0): 27.3% | viability at 4 h, 3 μg/mL (in vitro; CE3 (%), cell viability on Day 3): 70.6%

CSc1ccc(OCc2ncc([N+](=O)[O-])n2C)cc1 [fexinidazole, reference compound]
micronucleus test in human lymphocytes (human lymphocytes): negative | ex vivo unscheduled DNA synthesis in rats (rats): negative | bone marrow micronucleus test in mice (mice): negative | Ames test ([3]; ref [6]): positive

CC(=O)Nc1ccc(C(=O)CCl)cc1 [4-(Chloroacetyl)-acetanilide, 4-(Chloroacetyl)acetanilide]
TK6 assay overall judgment [4]: positive | TK mutation assay, Long term [4]: Pos | TK mutation assay, With S9 [4]: Neg | TK mutation assay, Without S9 [4]: Pos | linear trend test of MF [4]: no statistically significant linear trends | Carcinogenicity Studies (rodent [6]): Neg | The Highest Specific Activity and the Strain ([3]; TA1538 with S9, ref [18], [19]): 600 revertants/mg in TA1538 with S9 | Bacterial reverse mutation assay, With S9 [3]: Pos | Bacterial reverse mutation assay, Without S9 [3]: Neg | in vivo genotoxicity tests (rodent [7]; [11]): negative

Cl.ClCc1ccccn1 [2-(Chloromethyl) pyridine HCl]
Carcinogenicity Studies (rodent [6]): Neg | MLA (TK gene locus), With S9 ([1]; with S9, ref [27], [46]-[53], Table 3): Pos | MLA (TK gene locus), Without S9 ([1]; ref [27], [46]-[53], Table 3): Pos | The Highest Specific Activity and the Strain ([3]; TA100 with S9, ref Table 2): 98.6 revertants/mg in TA100 with S9 | Bacterial reverse mutation assay, With S9 [3]: Pos | Bacterial reverse mutation assay, Without S9 [3]: Pos | in vivo genotoxicity tests (rodent [7]; in vivo): negative | TK6 assay result (mutant frequency increase, judgment) ([8]; 4h treatment (+S9)): clear concentration-dependent increase of MF | TK6 assay result (mutant frequency increase, judgment) ([8]; 4h treatment (-S9)): clear concentration-dependent increase of MF | Dunnett type test, test statistic [8, 12]: 5.868 | Trend test, test statistic [8, 12]: 3.912 | Dunnett type test, test statistic [8, 13]: 5.268 | Trend test, test statistic [8, 13]: 3.417 | TK6 assay overall judgment [8]: positive | TK mutation assay, With S9 [8]: Pos | TK mutation assay, Without S9 [8]: Pos | cytotoxicity (relative colony efficiency) (TK6 cells [9]; 60 μg/mL, absence of S9, short-term): About 80% | cytotoxicity (relative colony efficiency) (TK6 cells [9]; 100 μg/mL, presence of S9, short-term): About 80%

Oc1cccc2cccnc12 [8-Hydroxyquinoline]
TK mutation assay, With S9 [4]: Pos | TK mutation assay, Without S9 [4]: Neg | Trend test, test statistic ([4]; human): 4.896 / 1.645 / p < 0.05 | Carcinogenicity Studies (rodent [6]): Neg | MLA (TK gene locus), Without S9 ([1]; ref [27], [46]-[53], Table 3): Pos | The Highest Specific Activity and the Strain ([3]; TA97 with S9, ref [28]): 21,400 revertants/mg | The Highest Specific Activity and the Strain ([3]; TA100 with S9, ref Table 2): 16,000 revertants/mg | specific activity values obtained from Ames test ([3]; ref Table 2): exceeding 10,000 revertants per milligram | Bacterial reverse mutation assay, With S9 [3]: Pos | Bacterial reverse mutation assay, Without S9 [3]: Neg | in vivo genotoxicity tests (rodent [7]; [11]): negative

Cc1ccc(N)cc1N [2,4-Diaminotoluene, reference compound]
carcinogenicity (rodent [6]; report of the National Toxicology Program, ref [24]): carcinogenic | DNA adducts in the livers of rats (livers of rats): Significant DNA adducts were detected

O=[N+]([O-])c1cccc2ccccc12 [1-Nitronaphthalene]
Carcinogenicity Studies (rodent [6]): Neg | The Highest Specific Activity and the Strain ([3]; TA100 with S9, ref Table 2): 12,500 revertants/mg | The Highest Specific Activity and the Strain ([3]; TA100 without S9, ref Table 2): 14,700 revertants/mg | specific activity values obtained from Ames test ([3]; ref Table 2): exceeding 10,000 revertants per milligram | Bacterial reverse mutation assay, With S9 [3]: Pos | Bacterial reverse mutation assay, Without S9 [3]: Pos | in vivo genotoxicity tests (rodent [7]; [11]): negative | TK6 assay result (mutant frequency increase, judgment) ([8]; 4h treatment (+S9)): significant increase in MF | TK6 assay result (mutant frequency increase, judgment) ([8]; 4h treatment (-S9)): significant increase in MF | TK6 assay overall judgment [8]: positive | TK mutation assay, With S9 [8]: Pos | TK mutation assay, Without S9 [8]: Pos

Nc1ccc(-c2ccc(N)cc2)cc1 [benzidine]
Mutagenicity in human TK6 cells [10]: Mutagenicity was confirmed
